Experimental data reported in patent publication US12590106B2, “Spiromacrocyclic orexin 2 receptor agonists” (H. Lundbeck A/S, priority 2023, dated 2026).

Biological target: T1, human Ox2R (Homo sapiens, UniProt O43614)
T1 construct: The gene encoding hOx2R was subcloned into the expression plasmid pcDNA5/FRT/TO; expressed in transfected cells; host or cells: CHO Flp-In cells (pcDNA5/FRT/TO with pOG44 Flp recombinase vector, hygromycin B selection)
T1 sequence (O43614 1-444): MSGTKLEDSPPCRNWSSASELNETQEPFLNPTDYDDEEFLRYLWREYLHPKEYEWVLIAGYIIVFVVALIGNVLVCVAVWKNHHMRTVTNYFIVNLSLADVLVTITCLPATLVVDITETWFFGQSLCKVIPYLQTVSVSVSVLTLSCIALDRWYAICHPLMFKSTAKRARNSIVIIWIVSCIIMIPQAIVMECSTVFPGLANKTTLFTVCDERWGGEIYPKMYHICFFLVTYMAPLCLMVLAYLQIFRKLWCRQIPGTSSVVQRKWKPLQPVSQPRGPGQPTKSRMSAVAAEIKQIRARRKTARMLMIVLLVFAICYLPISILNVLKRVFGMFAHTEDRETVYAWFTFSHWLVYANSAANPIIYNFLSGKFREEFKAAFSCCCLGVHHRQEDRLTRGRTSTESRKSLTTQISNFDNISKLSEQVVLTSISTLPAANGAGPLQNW
Assay: Measurement of OX2R agonist activity (cell-based calcium release assay)
Conditions: hOx2R-CHO Flp-In cells, n≥2 tests; for EC50: intracellular calcium, read-out: EC50; for Emax: normalized to assay buffer (0%) and 10 μM Danavorexton (100%), read-out: Emax (%)
Text: Measurement of OX2R Agonist Activity
The Ox2R has a broad signaling profile and couple to a range of different Gα-proteins. The cell-based calcium release assay is primarily assessing signaling through the Gαq signaling pathway, which promotes calcium mobilization via inositol triphosphate production upon activation of Ox2R.
A CHO Flp-In cell-line stably expressing the human Ox2R (hOx2R-CHO Flp-In) was established as follows: The gene encoding hOx2R was subcloned into the expression plasmid pcDNA5/FRT/TO and then transfected into CHO Flp-In cells together with the Flp recombinase vector, pOG44. Cells were cultured in growth medium: Ham's F12 (Gibco), 10% fetal bovine serum (Gibco) and 100 U/mL penicillin-streptomycin (Gibco) supplemented with hygromycin B (Thermo Fisher Scientific) as selection marker at 37° C. in the presence of 5% CO2.
To prepare the hOx2R-CHO FlpIn cells for calcium release assay, the cells were suspended in growth medium and seeded in black, clear-bottomed 384-well plates (Corning) at 10,000 cells/well. The plated cells were grown overnight at 37° C. and 5% CO2. The following day, the media was removed, and the cells were incubated with assay buffer (HBSS with 20 mM HEPES, pH 7.4) containing 2.5 mM probenecid (Thermo Fisher Scientific), 10 mM CaCl2, 0.1% pluronic F68 (Gibco) and 1× calcium-4 dye (Molecular Devices) for 1 h at 37° C. and 5% CO2. After incubation, cells were allowed to equilibrate at room temperature for 15 minutes and then loaded into FDSS7000Ex system (Hamamatsu Photonics) together with a plate containing test compounds serially diluted in assay buffer. Cells were stimulated with test compounds (online injection) and the agonist activity was determined as an increase in intracellular calcium concentration measured from the ratio of fluorescence emission at 542 nm by excitation at 480 nm. The agonist response for each applied concentration was assessed as the ratio: maximum fluorescence/average pre-stimulated fluorescence and was normalized to responses from assay buffer alone (0% response) and 10 μM Danavorexton (100% response). EC50 and Emax values were calculated from concentration-response curves by using Genedata Screener software.

SMILES	EC50 [nM]	Emax [%]
CS(=O)(=O)N[C@H]1CC[C@@]2(Cc3ccc(F)c(c3)-c3ccc(F)c(F)c3OCc3coc2n3)C1 [Example 14, N-[(1′S,14R)-5,6,19-trifluorospiro[8,12-dioxa-21-azatetracyclo[14.3.1.110,13.02,7]henicosa-1(19),2,4,6,10,13(21),16(20),17-octaene-14,3′-cyclopentane]-1′-yl]methanesulfonamide]	0.62	97
CS(=O)(=O)N[C@H]1CC[C@@]2(Cc3cc(ccc3F)-c3cccc(F)c3OCc3coc2n3)C1 [Example 17, N-[(1′S,14R)-6,17-difluorospiro[8,12-dioxa-21-azatetracyclo[14.3.1.110,13.02,7]henicosa-1(19),2,4,6,10,13(21),16(20),17-octaene-14,3′-cyclopentane]-1′-yl]methanesulfonamide]	0.22	96
CS(=O)(=O)N[C@H]1CC[C@@]2(Cc3cc(c(F)cc3F)-c3ccccc3OCc3coc2n3)C1 [Example 18, N-[(1′S,14R)-17,19-difluorospiro[8,12-dioxa-21-azatetracyclo[14.3.1.110,13.02,7]henicosa-1(19),2,4,6,10,13(21),16(20),17-octaene-14,3′-cyclopentane]-1′-yl]methanesulfonamide]	0.19	95
CS(=O)(=O)N[C@H]1CC[C@@]2(Cc3ccc(C(F)(F)F)c(c3)-c3cccc(F)c3OCc3coc2n3)C1 [Example 23, N-[(1′S,14R)-6-fluoro-19-(trifluoromethyl)spiro[8,12-dioxa-21-azatetracyclo[14.3.1.110,13.02,7]henicosa-1(19),2,4,6,10,13(21),16(20),17-octaene-14,3′-cyclopentane]-1′-yl]methanesulfonamide]	1.3	98
CS(=O)(=O)N[C@H]1CC[C@@]2(Cc3ccc(C(F)(F)F)c(c3)-c3ccccc3OCc3coc2n3)C1 [Example 24, N-[(1′S,14R)-19-(trifluoromethyl)spiro[8,12-dioxa-21-azatetracyclo[14.3.1.110,13.02,7]henicosa-1(19),2,4,6,10,13(21),16(20),17-octaene-14,3′-cyclopentane]-1′-yl]methanesulfonamide]	5.2	98
Cc1oc2nc1COc1ccccc1-c1cc(ccc1F)C[C@@]21CC[C@H](NS(C)(=O)=O)C1 [Example 26, N-[(1′S,14R)-19-fluoro-11-methyl-spiro[8,12-dioxa-21-azatetracyclo[14.3.1.110,13.02,7]henicosa-1(19),2,4,6,10,13(21),16(20),17-octaene-14,3′-cyclopentane]-1′-yl]methanesulfonamide]	0.19	95
CS(=O)(=O)N[C@H]1CC[C@@]2(Cc3cc(ccc3F)-c3c(F)ccc(F)c3OCc3coc2n3)C1 [Example 27, N-[(1′S,14R)-3,6,17-trifluorospiro[8,12-dioxa-21-azatetracyclo[14.3.1.110,13.02,7]henicosa-1(20),2,4,6,10,13(21),16,18-octaene-14,3′-cyclopentane]-1′-yl]methanesulfonamide]	0.65	100
CS(=O)(=O)N[C@H]1CC[C@@]2(Cc3cc(ccc3F)-c3ccc(F)c(F)c3OCc3coc2n3)C1 [Example 28, N-[(1′S,14R)-5,6,17-trifluorospiro[8,12-dioxa-21-azatetracyclo[14.3.1.110,13.02,7]henicosa-1(19),2,4,6,10,13(21),16(20),17-octaene-14,3′-cyclopentane]-1′-yl]methanesulfonamide]	6	99
CS(=O)(=O)N[C@H]1CC[C@@]2(Cc3cc(ccc3F)-c3cccc(Cl)c3OCc3coc2n3)C1 [Example 29, N-[(1′S,14R)-6-chloro-17-fluoro-spiro[8,12-dioxa-21-azatetracyclo[14.3.1.110,13.02,7]henicosa-1(19),2,4,6,10,13(21),16(20),17-octaene-14,3′-cyclopentane]-1′-yl]methanesulfonamide]	2	98
CS(=O)(=O)N[C@H]1CC[C@@]2(Cc3ccc(Cl)c(c3)-c3ccc(F)c(F)c3OCc3coc2n3)C1 [Example 31, N-[(1′S,14R)-19-chloro-5,6-difluoro-spiro[8,12-dioxa-21-azatetracyclo[14.3.1.110,13.02,7]henicosa-1(19),2,4,6,10,13(21),16(20),17-octaene-14,3′-cyclopentane]-1′-yl]methanesulfonamide]	0.48	96

Results, then the compound that gave them:

EC50 [nM]	Emax [%]	SMILES
0.28	95	CN(C)S(=O)(=O)N[C@H]1CC[C@@]2(Cc3ccc(F)c(c3)-c3ccccc3OCc3coc2n3)C1 [Example 13, (3′S,14R)-3′-(dimethylsulfamoylamino)-19-fluoro-spiro[8,12-dioxa-21-azatetracyclo[14.3.1.110,13.02,7]henicosa-1(19),2,4,6,10,13(21),16(20),17-octaene-14,1′-cyclopentane]]
8.1	98	CS(=O)(=O)N[C@H]1CC[C@@]2(Cc3ccc(F)c(c3)-c3ccc(F)cc3OCc3coc2n3)C1 [Example 15, N-[(1′S,14R)-5,19-difluorospiro[8,12-dioxa-21-azatetracyclo[14.3.1.110,13.02,7]henicosa-1(19),2,4,6,10,13(21),16(20),17-octaene-14,3′-cyclopentane]-1′-yl]methanesulfonamide]
35	100	CS(=O)(=O)N[C@H]1CC[C@@]2(Cc3ccnc(c3)-c3cccc(F)c3OCc3coc2n3)C1 [Example 19, N-[(1′S,14R)-6-fluorospiro[8,12-dioxa-19,21-diazatetracyclo[14.3.1.110,13.02,7]henicosa-1(19),2,4,6,10,13(21),16(20),17-octaene-14,3′-cyclopentane]-1′-yl]methanesulfonamide]
0.33	97	CS(=O)(=O)N[C@H]1CC[C@@]2(Cc3ccc(F)c(c3)-c3cccc(Cl)c3OCc3coc2n3)C1 [Example 20, N-[(1′S,14R)-6-chloro-19-fluoro-spiro[8,12-dioxa-21-azatetracyclo[14.3.1.110,13.02,7]henicosa-1(19),2,4,6,10,13(21),16(20),17-octaene-14,3′-cyclopentane]-1′-yl]methanesulfonamide]
0.82	96	Cc1ccc2cc1-c1cccc(F)c1OCc1coc(n1)[C@]1(CC[C@H](NS(C)(=O)=O)C1)C2 [Example 22, N-[(1′S,14R)-6-fluoro-19-methyl-spiro[8,12-dioxa-21-azatetracyclo[14.3.1.110,13.02,7]henicosa-1(19),2,4,6,10,13(21),16(20),17-octaene-14,3′-cyclopentane]-1′-yl]methanesulfonamide]
0.28	98	CS(=O)(=O)N[C@H]1CC[C@@]2(Cc3cc(c(F)cc3Cl)-c3cccc(F)c3OCc3coc2n3)C1 [Example 32, N-[(1′S,14R)-17-chloro-6,19-difluoro-spiro[8,12-dioxa-21-azatetracyclo[14.3.1.110,13.02,7]henicosa-1(19),2,4,6,10,13(21),16(20),17-octaene-14,3′-cyclopentane]-1′-yl]methanesulfonamide]
0.1	97	O=S(=O)(N[C@H]1CC[C@@]2(Cc3ccc(F)c(c3)-c3cccc(F)c3OCc3coc2n3)C1)C1CC1 [Example 33, N-[(1′S,14R)-6,19-difluorospiro[8,12-dioxa-21-azatetracyclo[14.3.1.110,13.02,7]henicosa-1(19),2,4,6,10,13(21),16(20),17-octaene-14,3′-cyclopentane]-1′-yl]cyclopropanesulfonamide]
